{
  "source": "ChEMBL document CHEMBL1201862",
  "about": "“PubChem BioAssay data set” (2004)",
  "key": {"[1]": {"test": "toxicity toward HepG2 liver cells – cell-based, plate reader, cherry-pick, antagonist series, cytotoxicity control, dose response (AID 743416)", "assay_type": "functional"}, "[2]": {"molecular_target": "Eukaryotic translation initiation factor 4E (Mus musculus, UniProt P63073)", "test": "blockers of eIF4G binding by eIF4E – biochemical, TR-FRET, dose response (AID 855);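 note: potency for disrupting eIF4E binding to eIF4GI seen as loss of FRET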", "assay_type": "functional"}, "[3]": {"molecular_target": "Glutathione-S-transferase (Schistosoma japonicum, UniProt Q26513)", "test": "GST-antibody interaction or FRET quenching – biochemical, TR-FRET, artefact control for Vif-APOBEC3G degradation inhibitor project, dose response (AID 1117362)", "assay_type": "functional"}, "[4]": {"molecular_target": "Peroxisome proliferator-activated receptor gamma/Nuclear receptor coactivator 1 (Homo sapiens, UniProt P37231)", "assay_type": "functional"}, "[5]": {"molecular_target": "Peroxisome proliferator-activated receptor gamma/Nuclear receptor coactivator 3 (Homo sapiens, UniProt P37231)", "assay_type": "functional"}, "Beta-arrestin-1": {"molecular_target": "Beta-arrestin-1 (Homo sapiens, UniProt P49407)", "test": "beta-arrestin/AP2 interaction blockers, potency – biochemical, cherry pick 1, beta2-adaptin appendage, flow cytometry, dose response (AID 588783)", "assay_type": "functional"}, "[6]": {"molecular_target": "T1, Rac GTPase-activating protein 1 (Homo sapiens, UniProt Q9H0H5)", "T1 sequence (Q9H0H5 whole entry)": "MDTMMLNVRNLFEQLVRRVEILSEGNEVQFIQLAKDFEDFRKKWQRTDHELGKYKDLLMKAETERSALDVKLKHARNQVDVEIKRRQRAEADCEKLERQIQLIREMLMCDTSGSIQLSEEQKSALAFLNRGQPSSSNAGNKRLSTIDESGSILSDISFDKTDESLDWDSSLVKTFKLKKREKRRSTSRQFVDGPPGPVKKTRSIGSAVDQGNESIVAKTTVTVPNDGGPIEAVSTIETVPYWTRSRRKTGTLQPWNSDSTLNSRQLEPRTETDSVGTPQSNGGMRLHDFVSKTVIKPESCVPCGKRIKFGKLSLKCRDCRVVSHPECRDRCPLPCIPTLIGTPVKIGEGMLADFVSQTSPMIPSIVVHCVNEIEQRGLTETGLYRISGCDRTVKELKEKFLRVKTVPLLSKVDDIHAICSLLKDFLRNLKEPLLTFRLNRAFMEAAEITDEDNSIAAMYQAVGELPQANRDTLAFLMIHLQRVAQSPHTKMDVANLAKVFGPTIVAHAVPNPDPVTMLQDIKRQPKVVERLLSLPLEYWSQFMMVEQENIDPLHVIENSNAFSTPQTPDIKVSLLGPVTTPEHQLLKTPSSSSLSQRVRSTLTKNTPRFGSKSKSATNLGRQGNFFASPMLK", "test": "blockers of MgcRacGAP-driven Rac1 GTP hydrolysis – biochemical, ADP Hunter fluorescence, primary and confirmatory, confirmation (AID 624330)", "assay_type": "functional"}, "[7]": {"molecular_target": "Testis-specific serine/threonine-protein kinase 1 (Homo sapiens, UniProt Q9BXA7)", "assay_type": "functional"}, "[8]": {"molecular_target": "Insulin-like growth factor 1 receptor (Homo sapiens, UniProt P08069)", "test": "Navigating the Kinome. Panel member name: IGF1R", "assay_type": "functional"}, "[9]": {"molecular_target": "Cyclin-dependent kinase 5 (Homo sapiens, UniProt Q00535)", "assay_type": "functional"}, "[10]": {"molecular_target": "Serine/threonine-protein kinase DCLK1 (Homo sapiens, UniProt O15075)", "assay_type": "functional"}, "[11]": {"molecular_target": "Interleukin-1 receptor-associated kinase 4 (Homo sapiens, UniProt Q9NWZ3)", "sequence (Q9NWZ3 whole entry)": "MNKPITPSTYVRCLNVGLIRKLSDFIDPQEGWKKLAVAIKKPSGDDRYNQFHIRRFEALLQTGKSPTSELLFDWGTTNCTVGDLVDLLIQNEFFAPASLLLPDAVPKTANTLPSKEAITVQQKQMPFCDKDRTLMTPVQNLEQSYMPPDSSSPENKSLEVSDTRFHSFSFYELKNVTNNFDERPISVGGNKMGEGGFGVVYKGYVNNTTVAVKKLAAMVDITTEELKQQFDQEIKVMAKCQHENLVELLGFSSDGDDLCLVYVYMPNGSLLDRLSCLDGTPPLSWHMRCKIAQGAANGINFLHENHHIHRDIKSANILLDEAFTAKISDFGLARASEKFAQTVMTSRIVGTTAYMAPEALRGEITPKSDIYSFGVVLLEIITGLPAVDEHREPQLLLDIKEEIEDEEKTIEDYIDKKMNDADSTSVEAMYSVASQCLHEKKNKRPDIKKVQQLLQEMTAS", "assay_type": "functional"}, "[12]": {"molecular_target": "3-phosphoinositide-dependent protein kinase 1 (Homo sapiens, UniProt O15530)", "assay_type": "functional"}, "[13]": {"molecular_target": "RAC-gamma serine/threonine-protein kinase (Homo sapiens, UniProt Q9Y243)", "sequence (Q9Y243 whole entry)": "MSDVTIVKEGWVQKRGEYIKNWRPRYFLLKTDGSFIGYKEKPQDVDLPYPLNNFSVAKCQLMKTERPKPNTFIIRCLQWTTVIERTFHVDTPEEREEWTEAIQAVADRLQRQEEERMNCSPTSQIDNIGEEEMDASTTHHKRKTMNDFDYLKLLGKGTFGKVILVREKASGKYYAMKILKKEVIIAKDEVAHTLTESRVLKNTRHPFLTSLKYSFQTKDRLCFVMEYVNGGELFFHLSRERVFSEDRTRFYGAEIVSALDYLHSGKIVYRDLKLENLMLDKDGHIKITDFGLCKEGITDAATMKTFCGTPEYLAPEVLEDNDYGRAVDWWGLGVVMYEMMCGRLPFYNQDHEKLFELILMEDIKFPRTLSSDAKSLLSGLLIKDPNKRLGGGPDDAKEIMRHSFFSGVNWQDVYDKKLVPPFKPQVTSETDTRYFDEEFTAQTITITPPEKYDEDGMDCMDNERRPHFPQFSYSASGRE", "assay_type": "functional"}, "Ephrin type-A receptor 2": {"molecular_target": "Ephrin type-A receptor 2 (Homo sapiens, UniProt P29317)", "assay_type": "functional"}, "[14]": {"molecular_target": "Homeodomain-interacting protein kinase 4 (Homo sapiens, UniProt Q8NE63)", "assay_type": "functional"}, "[15]": {"molecular_target": "Ribosomal protein S6 kinase beta-1 (Homo sapiens, UniProt P23443)", "assay_type": "functional"}, "[16]": {"molecular_target": "Serine/threonine-protein kinase PLK4 (Homo sapiens, UniProt O00444)", "assay_type": "functional"}, "[17]": {"molecular_target": "Serine/threonine-protein kinase TBK1 (Homo sapiens, UniProt Q9UHD2)", "sequence (Q9UHD2 whole entry)": "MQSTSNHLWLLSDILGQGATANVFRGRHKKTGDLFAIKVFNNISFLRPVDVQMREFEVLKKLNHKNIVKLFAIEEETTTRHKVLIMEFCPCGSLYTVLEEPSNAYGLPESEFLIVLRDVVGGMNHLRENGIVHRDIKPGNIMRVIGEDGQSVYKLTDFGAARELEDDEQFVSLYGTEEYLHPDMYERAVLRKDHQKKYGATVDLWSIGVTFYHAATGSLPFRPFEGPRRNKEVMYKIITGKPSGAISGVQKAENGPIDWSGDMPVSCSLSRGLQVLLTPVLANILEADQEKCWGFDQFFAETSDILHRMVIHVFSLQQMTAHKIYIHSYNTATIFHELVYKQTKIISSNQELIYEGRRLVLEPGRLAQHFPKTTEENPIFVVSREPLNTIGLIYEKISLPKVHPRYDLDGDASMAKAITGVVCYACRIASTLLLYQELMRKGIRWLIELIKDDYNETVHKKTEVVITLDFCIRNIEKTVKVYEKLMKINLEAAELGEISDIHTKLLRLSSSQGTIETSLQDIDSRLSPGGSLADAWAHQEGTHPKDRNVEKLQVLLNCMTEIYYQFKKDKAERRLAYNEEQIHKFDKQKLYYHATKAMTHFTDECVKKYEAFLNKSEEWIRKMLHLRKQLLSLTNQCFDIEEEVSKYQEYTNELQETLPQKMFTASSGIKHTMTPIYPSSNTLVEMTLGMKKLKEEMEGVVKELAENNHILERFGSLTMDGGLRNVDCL", "test": "Navigating the Kinome. Panel member name: TBK1", "assay_type": "functional"}, "[18]": {"molecular_target": "cAMP-dependent protein kinase catalytic subunit alpha (Homo sapiens, UniProt P17612)", "assay_type": "functional"}, "[19]": {"molecular_target": "Protein-tyrosine kinase 6 (Homo sapiens, UniProt Q13882)", "assay_type": "functional"}, "[20]": {"molecular_target": "Tyrosine-protein kinase SYK (Homo sapiens, UniProt P43405)", "assay_type": "functional"}, "Misshapen-like kinase 1": {"molecular_target": "Misshapen-like kinase 1 (Homo sapiens, UniProt Q8N4C8)", "sequence (Q8N4C8 whole entry)": "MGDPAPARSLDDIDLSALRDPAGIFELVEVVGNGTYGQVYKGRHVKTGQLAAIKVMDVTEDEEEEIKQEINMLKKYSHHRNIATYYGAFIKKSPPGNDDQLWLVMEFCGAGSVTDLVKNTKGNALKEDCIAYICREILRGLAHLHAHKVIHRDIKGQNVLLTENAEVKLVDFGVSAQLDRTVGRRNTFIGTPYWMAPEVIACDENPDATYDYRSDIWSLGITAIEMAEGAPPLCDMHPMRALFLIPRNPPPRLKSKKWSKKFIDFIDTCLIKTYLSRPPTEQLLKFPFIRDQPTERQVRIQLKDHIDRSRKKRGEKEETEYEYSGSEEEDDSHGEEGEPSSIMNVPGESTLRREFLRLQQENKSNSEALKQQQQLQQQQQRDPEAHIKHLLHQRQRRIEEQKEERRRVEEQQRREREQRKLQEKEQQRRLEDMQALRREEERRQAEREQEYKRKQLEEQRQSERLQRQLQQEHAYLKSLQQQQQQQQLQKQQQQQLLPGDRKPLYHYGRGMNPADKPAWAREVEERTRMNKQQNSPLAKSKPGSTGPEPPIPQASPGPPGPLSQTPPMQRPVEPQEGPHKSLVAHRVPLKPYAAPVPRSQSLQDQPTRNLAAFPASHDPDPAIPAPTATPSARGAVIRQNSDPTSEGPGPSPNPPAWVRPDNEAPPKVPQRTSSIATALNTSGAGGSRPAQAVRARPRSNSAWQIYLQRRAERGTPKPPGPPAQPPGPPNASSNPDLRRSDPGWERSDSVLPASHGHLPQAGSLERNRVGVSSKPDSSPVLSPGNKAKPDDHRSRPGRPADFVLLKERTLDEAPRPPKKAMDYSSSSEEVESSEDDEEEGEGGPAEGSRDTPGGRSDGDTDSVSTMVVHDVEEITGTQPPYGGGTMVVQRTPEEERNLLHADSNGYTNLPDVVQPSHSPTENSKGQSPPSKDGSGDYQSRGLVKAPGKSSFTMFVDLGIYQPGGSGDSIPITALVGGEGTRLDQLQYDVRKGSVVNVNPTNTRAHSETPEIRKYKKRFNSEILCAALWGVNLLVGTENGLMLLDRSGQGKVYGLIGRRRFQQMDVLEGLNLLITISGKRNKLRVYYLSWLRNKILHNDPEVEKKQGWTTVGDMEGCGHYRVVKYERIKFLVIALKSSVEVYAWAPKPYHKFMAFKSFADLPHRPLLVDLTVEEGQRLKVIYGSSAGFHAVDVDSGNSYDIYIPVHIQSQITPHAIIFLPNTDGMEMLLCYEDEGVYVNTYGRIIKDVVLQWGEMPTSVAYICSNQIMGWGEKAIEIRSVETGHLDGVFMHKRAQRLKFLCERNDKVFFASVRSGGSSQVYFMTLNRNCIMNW", "assay_type": "functional"}, "[21]": {"molecular_target": "MAP kinase-activated protein kinase 3 (Homo sapiens, UniProt Q16644)", "assay_type": "functional"}, "[22]": {"molecular_target": "Calcium/calmodulin-dependent protein kinase type II subunit gamma (Homo sapiens, UniProt Q13555)", "assay_type": "functional"}, "[23]": {"molecular_target": "Serine/threonine-protein kinase pim-1 (Homo sapiens, UniProt P11309)", "assay_type": "functional"}, "[24]": {"molecular_target": "Rho-associated protein kinase 1 (Homo sapiens, UniProt Q13464)", "sequence (Q13464 whole entry)": "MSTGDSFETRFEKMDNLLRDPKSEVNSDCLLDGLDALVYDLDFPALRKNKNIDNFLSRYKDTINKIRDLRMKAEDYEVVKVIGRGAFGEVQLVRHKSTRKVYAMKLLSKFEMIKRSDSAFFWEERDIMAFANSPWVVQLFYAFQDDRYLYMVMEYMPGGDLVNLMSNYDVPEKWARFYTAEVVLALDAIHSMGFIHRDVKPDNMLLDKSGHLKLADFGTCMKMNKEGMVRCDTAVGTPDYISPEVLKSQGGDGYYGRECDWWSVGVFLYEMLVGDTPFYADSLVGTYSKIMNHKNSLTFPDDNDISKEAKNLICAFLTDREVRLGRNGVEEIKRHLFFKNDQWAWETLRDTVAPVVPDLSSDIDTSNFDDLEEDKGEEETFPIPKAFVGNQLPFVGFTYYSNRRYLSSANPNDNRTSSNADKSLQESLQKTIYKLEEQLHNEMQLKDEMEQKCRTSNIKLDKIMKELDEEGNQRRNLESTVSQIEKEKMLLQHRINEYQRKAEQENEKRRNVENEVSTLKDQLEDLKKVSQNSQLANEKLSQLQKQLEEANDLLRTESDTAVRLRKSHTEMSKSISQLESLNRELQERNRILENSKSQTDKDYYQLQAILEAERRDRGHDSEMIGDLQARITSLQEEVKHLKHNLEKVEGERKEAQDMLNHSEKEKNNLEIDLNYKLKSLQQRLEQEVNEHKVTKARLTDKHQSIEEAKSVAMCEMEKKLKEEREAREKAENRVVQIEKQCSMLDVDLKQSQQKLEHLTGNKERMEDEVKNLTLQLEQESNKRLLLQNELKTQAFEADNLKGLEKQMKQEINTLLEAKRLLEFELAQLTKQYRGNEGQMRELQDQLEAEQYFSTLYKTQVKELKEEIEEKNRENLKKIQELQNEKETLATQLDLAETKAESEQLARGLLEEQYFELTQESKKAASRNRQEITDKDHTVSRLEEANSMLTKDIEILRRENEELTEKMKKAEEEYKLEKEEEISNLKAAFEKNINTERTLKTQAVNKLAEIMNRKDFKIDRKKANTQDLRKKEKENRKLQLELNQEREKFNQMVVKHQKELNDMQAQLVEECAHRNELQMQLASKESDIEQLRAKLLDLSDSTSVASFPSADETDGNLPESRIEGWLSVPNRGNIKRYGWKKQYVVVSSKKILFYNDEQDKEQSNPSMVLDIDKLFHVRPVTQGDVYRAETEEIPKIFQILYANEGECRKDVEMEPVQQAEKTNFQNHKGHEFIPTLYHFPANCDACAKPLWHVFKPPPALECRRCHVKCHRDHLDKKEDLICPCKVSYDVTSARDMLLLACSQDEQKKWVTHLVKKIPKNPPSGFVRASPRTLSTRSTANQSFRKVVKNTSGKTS", "assay_type": "functional"}, "[25]": {"molecular_target": "Serine/threonine-protein kinase PAK 1 (Homo sapiens, UniProt Q13153)", "sequence (Q13153 whole entry)": "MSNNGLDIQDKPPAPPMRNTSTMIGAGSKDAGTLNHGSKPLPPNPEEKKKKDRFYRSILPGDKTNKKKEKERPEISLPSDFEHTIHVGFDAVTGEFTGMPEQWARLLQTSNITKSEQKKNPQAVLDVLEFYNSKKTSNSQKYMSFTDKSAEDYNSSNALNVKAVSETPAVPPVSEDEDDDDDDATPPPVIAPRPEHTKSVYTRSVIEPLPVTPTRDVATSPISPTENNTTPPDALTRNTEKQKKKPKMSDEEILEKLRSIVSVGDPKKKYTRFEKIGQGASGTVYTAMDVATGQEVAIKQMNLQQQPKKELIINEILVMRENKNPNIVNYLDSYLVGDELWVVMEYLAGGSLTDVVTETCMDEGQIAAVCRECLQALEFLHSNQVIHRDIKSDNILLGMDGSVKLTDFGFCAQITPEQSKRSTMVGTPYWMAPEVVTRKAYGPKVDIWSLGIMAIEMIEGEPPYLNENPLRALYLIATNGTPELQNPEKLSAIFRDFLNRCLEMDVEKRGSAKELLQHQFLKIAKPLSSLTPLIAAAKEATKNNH", "assay_type": "functional"}, "[26]": {"molecular_target": "Mitogen-activated protein kinase 1 (Homo sapiens, UniProt P28482)", "assay_type": "functional"}, "[27]": {"molecular_target": "Proto-oncogene tyrosine-protein kinase ROS (Homo sapiens, UniProt P08922)", "assay_type": "functional"}, "[28]": {"molecular_target": "Dual specificity tyrosine-phosphorylation-regulated kinase 3 (Homo sapiens, UniProt O43781)", "assay_type": "functional"}, "[29]": {"molecular_target": "Kappa-type opioid receptor (Homo sapiens, UniProt P41145)", "assay_type": "functional"}, "Mu-type opioid receptor": {"molecular_target": "Mu-type opioid receptor (Homo sapiens, UniProt P35372)", "test": "HTS Image-Based Screen for Agonists of the MOR Receptor. [Related pubchem assays (depositor defined):AID1777, AID1785, AID1786, AID2133]", "assay_type": "functional"}, "Beta-galactosidase": {"molecular_target": "Beta-galactosidase (Escherichia coli, UniProt Q8VNN2)", "assay_type": "functional"}, "HEK293": {"tested_on": "HEK293", "test": "cells", "assay_type": "functional, cell-based", "conditions": "Homo sapiens"}},
  "note": "Calls of active or inactive are those of the source.",
  "data": [
    {"smiles": "Cc1cnc(NC(=O)c2sc3ccccc3c2Cl)s1", "values": [
      {"measurement": "AC50", "setting": "[1]", "value": "> 52 µM (inactive)"},
      {"measurement": "EC50", "setting": "cells", "value": "> 67.5 µM (inactive)"}
    ]},
    {"smiles": "CN(C)c1ncc(C2=C(Cl)C(=O)C(N3CCCC3)=C(Cl)C2=O)s1", "values": [
      {"measurement": "IC50", "setting": "[2]", "value": "> 64 µM (inactive)"},
      {"measurement": "IC50", "setting": "[3]", "value": "> 100 µM (active)"},
      {"measurement": "EC50", "setting": "[4]", "value": "> 79.4 µM (not active)"},
      {"measurement": "EC50", "setting": "[5]", "value": "> 79.4 µM (not active)"},
      {"measurement": "IC50", "setting": "Beta-arrestin-1", "value": "10.7 µM (active)"},
      {"measurement": "IC50", "setting": "[6]", "value": "89.5 µM (active)"}
    ]},
    {"smiles": "O=C1NC(=S)SC1=C1C(=O)Nc2ccc(Br)cc21", "values": [
      {"measurement": "Ki", "setting": "[7]", "value": "> 1.58 µM (inactive)"},
      {"measurement": "Ki", "setting": "[8]", "value": "> 2 µM (inactive)"},
      {"measurement": "Ki", "setting": "[9]", "value": "> 10 µM (inactive)"},
      {"measurement": "Ki", "setting": "[10]", "value": "> 10 µM (inactive)"},
      {"measurement": "Ki", "setting": "[11]", "value": "7.94 µM (active)"},
      {"measurement": "Ki", "setting": "[12]", "value": "> 3.98 µM (inactive)"},
      {"measurement": "Ki", "setting": "[13]", "value": "> 10 µM (inactive)"},
      {"measurement": "Ki", "setting": "Ephrin type-A receptor 2", "value": "> 3.16 µM (inactive)"},
      {"measurement": "Ki", "setting": "[14]", "value": "0.631 µM (active)"},
      {"measurement": "Ki", "setting": "[15]", "value": "6.31 µM (active)"},
      {"measurement": "Ki", "setting": "[16]", "value": "1.26 µM (active)"},
      {"measurement": "Ki", "setting": "[17]", "value": "> 1.58 µM (inactive)"},
      {"measurement": "Ki", "setting": "[18]", "value": "> 7.94 µM (inactive)"},
      {"measurement": "Ki", "setting": "[19]", "value": "> 2.51 µM (inactive)"},
      {"measurement": "Ki", "setting": "[20]", "value": "0.794 µM (active)"},
      {"measurement": "Ki", "setting": "Misshapen-like kinase 1", "value": "> 7.94 µM (inactive)"},
      {"measurement": "Ki", "setting": "[21]", "value": "> 10 µM (inactive)"},
      {"measurement": "Ki", "setting": "[22]", "value": "0.501 µM (active)"},
      {"measurement": "Ki", "setting": "[23]", "value": "0.0631 µM (active)"},
      {"measurement": "Ki", "setting": "[24]", "value": "5.01 µM (active)"},
      {"measurement": "Ki", "setting": "[25]", "value": "> 10 µM (inactive)"},
      {"measurement": "Ki", "setting": "[26]", "value": "> 7.94 µM (inactive)"},
      {"measurement": "Ki", "setting": "[27]", "value": "> 2 µM (inactive)"},
      {"measurement": "Ki", "setting": "[28]", "value": "> 6.31 µM (inactive)"}
    ]},
    {"smiles": "Cc1ccc(Nc2cc(C)nn2-c2nc(C)cc(O)n2)cc1", "values": [
      {"measurement": "IC50", "setting": "[29]", "value": "0.747 µM (active)"},
      {"measurement": "EC50", "setting": "Mu-type opioid receptor", "value": "> 32 µM (inactive)"},
      {"measurement": "EC50", "setting": "Beta-galactosidase", "value": "> 31.5 µM (inactive)"}
    ]},
    {"smiles": "O=C1C(O)=C/C(=N\\c2ccccc2O)c2ccccc21", "values": [
      {"measurement": "IC50", "setting": "HEK293", "value": "> 20 µM (inactive)"}
    ]}
  ]
}
